Data from ChEMBL document CHEMBL4270583, “Synthesis and biological evaluation of dihydroquinoline carboxamide derivatives as anti-tubercular agents” (Eur J Med Chem, 2018).
Converted amounts (≈) assume the structure as drawn.

Key:
[1] = tested on: Mycobacterium tuberculosis; test: Antitubercular activity against Mycobacterium tuberculosis H37Rv after 1 week by microplate alamar blue assay; type: functional; conditions: 168 h
[2] = Cytotoxicity against mouse RAW264.7 cells assessed as growth inhibition at 25 ug/ml after 48 hrs by MTT assay relative to control; type: cell-based; conditions: read-out: GI
[3] = Cytotoxicity against mouse RAW264.7 cells assessed as growth inhibition after 48 hrs by MTT assay; type: cell-based

SMILES: CSc1ccc(NC(=O)c2c(-c3ccccc3)c3cc(Cl)ccc3n(Cc3cccc(C)c3)c2=O)cc1
- MIC [1]: 12.5 µg/mL (≈ 23.8 µM)

SMILES: O=C(NCCN1CCCCC1)c1c(-c2ccccc2)c2cc(Cl)ccc2[nH]c1=O
- MIC [1]: 25 µg/mL (≈ 61 µM)

SMILES: O=C(Nc1ccc(Cl)cc1)c1c(-c2ccccc2)c2cc(Cl)ccc2n(Cc2cccc(F)c2)c1=O
- inhibition at 48 h, 25 ug/ml [2]: 24.7%
- MIC [1]: 0.39 µg/mL (≈ 0.754 µM)
- GI50 at 48 h [3]: 86.8 µg/mL (≈ 168 µM)

SMILES: O=C(Nc1ccccc1F)c1c(-c2ccccc2)c2cc(Cl)ccc2n(Cc2ccc(F)cc2)c1=O
- MIC [1]: > 25 µg/mL

SMILES: O=C(Nc1cccc(F)c1)c1c(-c2ccccc2)c2cc(Cl)ccc2n(Cc2ccc(F)cc2)c1=O
- MIC [1]: > 25 µg/mL

SMILES: NNC(=O)c1ccncc1 [ISONIAZID]
- MIC [1]: 0.1 µg/mL (≈ 0.729 µM)

SMILES: O=C(NC12CC3CC(CC(C3)C1)C2)c1c(-c2ccccc2)c2ccccc2[nH]c1=O
- inhibition at 48 h, 25 ug/ml [2]: 16.2%
- MIC [1]: 3.12 µg/mL (≈ 7.84 µM)
- GI50 at 48 h [3]: 87.6 µg/mL (≈ 220 µM)

SMILES: O=C(NCCN1CCOCC1)c1c(-c2ccccc2)c2cc(Cl)ccc2[nH]c1=O
- MIC [1]: 25 µg/mL (≈ 60.7 µM)

SMILES: O=C(NCCCn1ccnc1)c1c(-c2ccccc2)c2cc(Cl)ccc2[nH]c1=O
- MIC [1]: 25 µg/mL (≈ 61.4 µM)

SMILES: O=C(Nc1ccc2c(c1)OCCO2)c1c(-c2ccccc2)c2ccccc2[nH]c1=O
- MIC [1]: 25 µg/mL (≈ 62.7 µM)

SMILES: CC[C@@H](CO)NCCN[C@@H](CC)CO [ETHAMBUTOL]
- MIC [1]: 1.56 µg/mL (≈ 7.64 µM)

SMILES: CO[C@H]1/C=C/O[C@@]2(C)Oc3c(C)c(O)c4c(O)c(c(/C=N/N5CCN(C)CC5)c(O)c4c3C2=O)NC(=O)/C(C)=C\C=C\[C@H](C)[C@H](O)[C@@H](C)[C@@H](O)[C@@H](C)[C@H](OC(C)=O)[C@@H]1C [RIFAMPIN]
- MIC [1]: 0.2 µg/mL (≈ 0.243 µM)

SMILES: O=C(Nc1ccc(C(F)(F)F)cc1)c1c(-c2ccccc2)c2ccccc2n(Cc2ccccc2)c1=O
- MIC [1]: 25 µg/mL (≈ 50.2 µM)

SMILES: Cc1cccc(Cn2c(=O)c(C(=O)Nc3ccc(F)cc3)c(-c3ccccc3)c3cc(Cl)ccc32)c1
- MIC [1]: > 25 µg/mL

SMILES: O=C(NCCc1ccccc1)c1c(-c2ccccc2)c2cc(Cl)ccc2[nH]c1=O
- MIC [1]: 25 µg/mL (≈ 62.1 µM)

SMILES: CS(=O)(=O)c1ccc(NC(=O)c2c(-c3ccccc3)c3ccccc3n(Cc3cccc(Cl)c3)c2=O)cc1
- MIC [1]: 12.5 µg/mL (≈ 23 µM)

SMILES: O=C(NCCc1ccc(O)cc1)c1c(-c2ccccc2)c2cc(Cl)ccc2[nH]c1=O
- MIC [1]: 25 µg/mL (≈ 59.7 µM)

SMILES: O=C(Nc1ccc(F)cc1)c1c(-c2ccccc2)c2ccccc2n(Cc2ccccc2)c1=O
- MIC [1]: > 25 µg/mL

SMILES: O=C(Nc1ccc(N2CCOCC2)cc1)c1c(-c2ccccc2)c2cc(Cl)ccc2[nH]c1=O
- inhibition at 48 h, 25 ug/ml [2]: 18.6%
- MIC [1]: 6.25 µg/mL (≈ 13.6 µM)
- GI50 at 48 h [3]: 96.4 µg/mL (≈ 210 µM)

SMILES: COC(=O)C(Cc1c[nH]c2ccccc12)NC(=O)c1c(-c2ccccc2)c2cc(Cl)ccc2[nH]c1=O (stereo not given)
- inhibition at 48 h, 25 ug/ml [2]: 21.5%
- MIC [1]: 6.25 µg/mL (≈ 12.5 µM)
- GI50 at 48 h [3]: 104 µg/mL (≈ 209 µM)

SMILES: Cc1cccc(Cn2c(=O)c(C(=O)Nc3ccc(Br)cc3)c(-c3ccccc3)c3cc(Cl)ccc32)c1
- MIC [1]: > 25 µg/mL

SMILES: Cc1cc(C)c(NC(=O)c2c(-c3ccccc3)c3cc(Cl)ccc3n(Cc3cccc(F)c3)c2=O)c(C)c1
- inhibition at 48 h, 25 ug/ml [2]: 22.4%
- MIC [1]: 0.78 µg/mL (≈ 1.49 µM)
- GI50 at 48 h [3]: 93.5 µg/mL (≈ 178 µM)

SMILES: O=C(Nc1ccc(CO)cc1)c1c(-c2ccccc2)c2cc(Cl)ccc2[nH]c1=O
- MIC [1]: > 25 µg/mL

SMILES: O=C(Nc1ccc(OC(F)(F)F)cc1)c1c(-c2ccccc2)c2ccccc2n(Cc2ccccc2)c1=O
- MIC [1]: > 25 µg/mL

SMILES: O=C(Nc1ccc(F)cc1)c1c(-c2ccccc2)c2ccccc2[nH]c1=O
- MIC [1]: 25 µg/mL (≈ 69.8 µM)

SMILES: O=C(Nc1ccc(Br)cc1)c1c(-c2ccccc2)c2ccccc2n(Cc2ccccc2)c1=O
- inhibition at 48 h, 25 ug/ml [2]: 14.6%
- MIC [1]: 6.25 µg/mL (≈ 12.3 µM)
- GI50 at 48 h [3]: 113 µg/mL (≈ 222 µM)

SMILES: COC(=O)C(Cc1ccc(O)cc1)NC(=O)c1c(-c2ccccc2)c2cc(Cl)ccc2[nH]c1=O (stereo not given)
- MIC [1]: 12.5 µg/mL (≈ 26.2 µM)

SMILES: Cc1cccc(Cn2c(=O)c(C(=O)Nc3ccc(C(F)(F)F)cc3)c(-c3ccccc3)c3cc(Cl)ccc32)c1
- MIC [1]: > 25 µg/mL

SMILES: Cc1cccc(Cn2c(=O)c(C(=O)Nc3ccc(Cl)cc3)c(-c3ccccc3)c3cc(Cl)ccc32)c1
- MIC [1]: 25 µg/mL (≈ 48.7 µM)

SMILES: CSc1ccc(NC(=O)c2c(-c3ccccc3)c3ccccc3n(Cc3cccc(Cl)c3)c2=O)cc1
- MIC [1]: > 25 µg/mL

SMILES: Cc1ccc(NC(=O)c2c(-c3ccccc3)c3cc(Cl)ccc3n(Cc3cc(F)cc(F)c3)c2=O)c(C)c1
- MIC [1]: 12.5 µg/mL (≈ 23.6 µM)

SMILES: Cc1cccc(Cn2c(=O)c(C(=O)Nc3ccc(OC(F)(F)F)cc3)c(-c3ccccc3)c3cc(Cl)ccc32)c1
- MIC [1]: > 25 µg/mL

SMILES: O=C(NCCc1c[nH]c2ccccc12)c1c(-c2ccccc2)c2ccccc2[nH]c1=O
- MIC [1]: 12.5 µg/mL (≈ 30.7 µM)
